The test deals with TPP riboswitch aptamer (wtAtRs1 + wtAtRs2 + wtAtRs3, splint-ligated) (RNA, riboswitch, amino-modified U (5-N-U) at 59 (U replaces G88 in paper numbering); amino-modified U (5-LC-N-U) at 123 (U25 in paper numbering)) AUCGAGAGGGACACGGGGAAACACCACCAUAUAUGCACCAGGGGUGCUUGAACCAGGAUAGCCUGCGAAAAGGCGGGCUAUCCGGGACCAGGCUGAGAAAGUCCCUUUGAACCUGAACAGGGUAAUGCCUGCGCAGGGAGUGUGCUAACAAGGUCACCAUCAUCCUGACUAGAGUCCUUGG
Nature of the test: optical-trap force spectroscopy with smFRET. To be noted: 130 mM KCl, 4 mM Mg2+, 50 mM HEPES pH 7.5, 1 mM EDTA, oxygen scavengers.

For the molecule `Cc1ncc(C[n+]2csc(CCOP(=O)(O)O)c2C)c(N)n1`, under “2 mM TMP (saturating), arms not docked”, the binding entry is “yes”.

For the molecule `Cc1ncc(C[n+]2csc(CCOP(=O)(O)OP(=O)(O)O)c2C)c(N)n1`, the binding result (5 µM, 50 µM and 2 mM TPP, weak then strong state) is reported as “yes”.

Take `Cc1ncc(C[n+]2csc(CCO)c2C)c(N)n1`: the binding entry (2 mM thiamine (saturating), arms not docked) is listed as “yes”.
